For assay [1], the system named is S. aureus ATCC 33591 (MRSA) biofilm formation. Put plainly: Biofilm inhibitory assay (crystal violet), biofilm formation. It is filed as cell-based, Staphylococcus aureus. Particulars: for IC50: Staphylococcus aureus, S. aureus ATCC 33591 (MRSA), biofilm formation, read-out: Biofilm Inhibition IC50. As to the method:
(§1) The effectiveness of SrtA inhibitors in reducing biofilm formation and growth was assessed using the crystal violet (CV) biofilm assay with the following modifications. TSB with 2% glucose (TSB without glucose for E. coli) was inoculated with 10^5 CFU/mL of S. aureus and E. coli overnight cultures. A total of 90µl of this cell suspension was then dispensed into 96-well microtiter plates containing 10 µL of different concentrations of the SrtA inhibitors. After 24 h growth at 37 °C the plates were washed with PBS to remove unbound cells and heat fixed at 60 °C for 30 min. Next, the wells were stained with 0.1% crystal violet solution for 15 min at room temperature. At the completion of the incubation plates were washed 3 times with PBS and dried. Then the crystal violet dye from the biofilm was solubilized with 200 µL of DMSO. A total of 100 µL of this solution was then moved to a new microtiter plate for absorbance measurement at 595 nm. For pre-formed biofilm assay, the plates were prepared and incubated as mentioned earlier, without SrtA inhibitors. After 24 h incubation, the culture supernatant was removed gently and biofilm carefully washed with sterile PBS. Next, 10 µL of different concentrations of SrtA inhibitors with 90 µL of TSB with 2% glucose were added carefully into the wells and incubated at 37 °C for 24 h. The amount of crystal violet staining of biofilm was measured as described above. The results were reported as percent inhibition normalized to the wild type control. Two independent experiments were performed in triplicate to ensure reproducibility.

Assay [2] concerns S. aureus Newman biofilm formation. The assay is described as above. It is filed as cell-based, Staphylococcus aureus. Particulars: CV assay; for IC50: biofilm formation, read-out: Biofilm Inhibition IC50. The procedure: as §1
A further assay concerns S. aureus ATCC 25923. Put plainly: S. aureus whole cell assay (MIC, microbroth dilution). The format is cell-based, Staphylococcus aureus. Particulars: for S. aureus MIC: 24 h; for MIC: Staphylococcus aureus, ATCC25923, 24 h. The procedure:
(§2) Minimum inhibitory concentration (MIC) tests were performed according to procedures of the Clinical Laboratory Standards Institute (CLSI) with minor changes using the microbroth dilution technique in a 384-well setup. Inoculum of each S. aureus strain was prepared by suspending segregated colonies in sterile saline to a 0.5 McFarland standard. An inoculum of 2–8 × 10^5 CFU/mL was incubated with the compounds for 24 h at 37 °C. Gentamicin (data not shown) was incubated in the same manner as the test compounds and served as a positive control. The effect of the compounds on bacterial growth was calculated by quantifying the optical density at 600 nm on a microplate reader (Tecan, Infinite M1000, Salzburg, Austria). Dilutions of the inoculum were cultivated on agar to verify the validity of the inoculum seeding density and absence of contamination. All tests were executed in triplicate during two separate experiments.
(In general: Dilution methods test growth across graded concentrations, often in twofold steps.)

For another assay, the system named is S. aureus Newman. Described as above. It is filed as cell-based, Staphylococcus aureus. Particulars: 24 h; for S. aureus MIC: Newman; for MIC: Staphylococcus aureus, NEWMAN. As to the method:
as §2

Assay [3] concerns the target T1, S. aureus sortase A (Staphylococcus aureus, UniProt Q2FV99).
T1 construct: purchased AnaSpec AS-72229
Nature of the assay: SrtA enzyme inhibition FRET assay, DABCYL-LPETG-EDANS substrate. The format is biochemical. As to the method:
(§3) The enzymatic reactions were carried out in black, low-binding polystyrene 384 well plates (Greiner Bio-One). […] SrtA was pre-incubated in the reaction buffer with compounds for 1 h at room temperature prior to the addition of the FRET substrate. Assays were performed in 50 µL reactions with 50 ng of S. aureus sortase A and 25 µM of DABCYL-LPETG-EDANS substrate or 1 µM of 5-FAM/QXL^TM 520 substrate. The inhibitory activity of the compounds was determined by monitoring the rise in fluorescence intensity over 24 h at Ex/Em = 336 nm/490 nm for the DABCYL/EDANS substrate and Ex/Em = 490 nm/520 nm for the 5-FAM/QXL 520 substrate on a Tecan Infinite M1000 Pro reader.
(§4) Raw fluorescence data were corrected for autofluorescence before computing percentage inhibition values. These percentage inhibition values were plotted against compound concentration using GraphPad Prism version 8.0 by nonlinear regression analysis using least squares fit method for IC50 determination. Testing was performed twice to ensure reproducibility of results.

Assay [4] relates to E. coli ATCC 25922 biofilm formation. Nature of the assay: Biofilm inhibitory assay (crystal violet), biofilm formation. It is filed as cell-based. Conditions: in words; CV assay. The procedure: as §1, with “Next, 10 µL of different concentrations of SrtA inhibitors with 90 µL of TSB with 2% glucose were added carefully into the wells and incubated at 37 °C for 24 h.” left out, “The results were reported as percent inhibition normalized to the wild type control. Two independent experiments were performed in triplicate to ensure reproducibility.” left out

The subject of assay [5] is S. aureus ATCC 33591 (MRSA) pre-formed biofilms. Nature of the assay: Biofilm inhibitory assay (crystal violet), pre-formed biofilms. The format is cell-based, Staphylococcus aureus. As to the method:
as §1

For assay [6], the target named is T1, S. aureus sortase A. Nature of the assay: SrtA enzyme inhibition FRET assay, 5-FAM/QXL 520 substrate. The format is biochemical. Conditions: Sortase A IC50, 5-FAM/QXL substrate; 10 min. The procedure: as §3, §4
For assay [7], the system named is adherence of S. aureus Newman to fibrinogen. Nature of the assay: Fibrinogen binding assay. The format is cell-based, Staphylococcus aureus. Conditions: for IC50: Staphylococcus aureus, NEWMAN, read-out: Fibrinogen adherence Inhibition IC50; for concentration giving ≥90% prevention of S. aureus Newman adherence to fibrinogen: compared to untreated wildtype strain. The procedure: Fibrinogen binding assay was completed as described but with slight revision. A flat-bottom 96-well plate was covered with fibrinogen protein by adding 50 µL of 20 µg/mL of fibrinogen protein from bovine plasma diluted in saline and incubated at 4 °C for 24 h. The coated plates were gently rinsed twice with PBS and blocked for 60 min with 4% bovine serum albumin (BSA). The plates were then washed 3 times with PBS. For this assay, S. aureus Newman strain was cultivated in TSB at 37 °C to exponential phase (OD600 = 0.5) and then the bacterial culture was incubated with various concentrations of test compound or control for 2.5 h. Then the cells were pelleted by centrifugation at 10,000× g for 10 min, the supernatants were removed and the cell pellets stored at −20 °C. The following day, cell pellets were suspended in PBS and dispersed in 100 μL aliquots to distinct wells of fibrinogen-coated 96-well plates. After 2 h of growth at 37 °C, the bacterial supernatant was discarded and the wells were rinsed gently with 150 µl PBS. Then the bacterial cells were fixed with 2% (v/v) glutaraldehyde and incubated for 30 min at 25 °C. After a wash with PBS, bound cells were stained with 0.1% crystal violet dye for 15 min. Plates were rinsed twice again with PBS, enclosed with aluminum foil, then stored at room temperature to dry overnight. On the next day absorbance was measured at 570 nm. The results were described as the percent of adhesion inhibition normalized to the wild type control. Two independent experiments were performed in triplicate to ensure reproducibility.

In the next assay the test system is HepG2 cells. Nature of the assay: Mammalian cell cytotoxicity assay (PrestoBlue). The format is cell-based, human. Conditions: read-out: Mammalian cell lines IC50. The procedure: (§5) A549 and HepG2 cells were seeded at 1500 and 2500 cells per well, respectively, in 384-well microplates and incubated at 37 °C in the presence of 5% CO2. The next day, cells were treated with compounds then incubated for an additional 72 h. To assess the cytotoxic effect of the compounds PrestoBlue cell viability reagent (Life Technologies, Carlsbad, CA, USA) was used. After the 72 h incubation with compounds, the 384-well assay plates were incubated with this viability indicator dye for 2 h (A549) and 4 h (HepG2) before fluorescence reading at Ex/Em = 560 nm/590 nm on the Tecan Infinite M1000 Pro reader. Puromycin (data not shown) was used as the positive control against both cell lines. All tests were executed in triplicate on two separate experiments.

Another assay has as its system A549 cells. Nature of the assay: Mammalian cell cytotoxicity assay (PrestoBlue). The format is cell-based, human. Particulars: read-out: Mammalian cell lines IC50. The procedure: as §5
Assay [8] concerns S. aureus ATCC 33591 (MRSA). Nature of the assay: S. aureus whole cell assay (MIC, microbroth dilution). Conditions: 24 h. It is filed as cell-based, Staphylococcus aureus. As to the method: as §2
Assay [9] relates to S. aureus Newman pre-formed biofilms. Nature of the assay: Biofilm inhibitory assay (crystal violet), pre-formed biofilms. The format is cell-based, Staphylococcus aureus. Conditions: CV assay. As to the method:
as §1

Where [10] appears, read: Sortase A IC50, DABCYL-LPETG-EDANS substrate, 4 h.
Setting [11] is: SrtA enzymatic activity IC50, text summary, Figure 2A,B, both substrates.

The source of these data is publication PMC7696255, “In-Silico Identified New Natural Sortase A Inhibitors Disrupt S. aureus Biofilm Formation” (International Journal of Molecular Sciences, 2020).

≈ marks a conversion by molar mass, not a printed value. Like-named read-outs stand apart in the source and are kept apart here. Bounds are passed on as bounds.

T1 sequence (Q2FV99 whole entry): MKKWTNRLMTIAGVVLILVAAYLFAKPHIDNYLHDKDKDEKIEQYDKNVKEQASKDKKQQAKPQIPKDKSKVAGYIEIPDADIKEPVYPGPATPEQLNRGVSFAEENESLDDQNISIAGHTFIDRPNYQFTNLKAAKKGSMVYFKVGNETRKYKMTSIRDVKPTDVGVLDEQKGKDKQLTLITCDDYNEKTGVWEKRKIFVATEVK

With `Cc1cc(O)c2c(c1)C(=O)c1c(c(O)cc(O)c1-c1c(O)cc(O)c3c1C(=O)c1cc(C)cc(O)c1C3=O)C2=O` [Compound N1287, Skyrin], the IC50 – broadly, the midpoint of a concentration-inhibition curve – in assay [1] is 41.9 µM; in assay [2] (Staphylococcus aureus, NEWMAN), 12.2 ± 4.1 µM; in assay [2] it was 12 µM; on S. aureus sortase A [3] (setting [10]), 24 ± 2.1 µM; against S. aureus sortase A [3] (setting [11]), less than 50 µM; on S. aureus sortase A [6], 31 ± 0.3 µM. The IC50 was 9.5 ± 0.5 µM in [7]; 60 to 90 µM in the assay with HepG2 cells (72 h); 63.9 ± 5.1 µM in the assay with HepG2 cells (Homo sapiens, HepG2, 72 h); 60 to 90 µM with A549 cells (72 h); 64.7 ± 6.2 µM in the assay with A549 cells (Homo sapiens, A549, 72 h). Further, the “inhibitory activity on MRSA biofilm formation” value in [1] (in words) is “exhibited inhibitory activity”. In addition, the “concentration giving >90% inhibition of biofilm formation” value in assay [2] is given as 23 µM. Besides, the “S. aureus MIC” value in the assay with S. aureus ATCC 25923 and in the assay with S. aureus Newman was 5 to 8 µM each time. The MIC (as a rule, the lowest concentration that inhibits growth of the organism) in the assay on S. aureus ATCC 25923 was 7.2 ± 0.1 µM (≈ 3.88 µg/mL); against S. aureus Newman, 7.3 ± 0.8 µM (≈ 3.93 µg/mL). Moreover, the “effect on E. coli ATCC 25922 biofilm formation” value in assay [4] is “did not show any effect”. Also, the “inhibitory activity on MRSA pre-formed biofilms” value in [5] (in words) was “not against pre-formed biofilms”. The “concentration giving ≥90% prevention of S. aureus Newman adherence to fibrinogen” value in assay [7] came out at 46 µM.

Consider `CC(C)CCCc1c(O)ccc(C(=O)c2cc(Cl)c(Cl)[nH]2)c1O` [Compound N2576, (4,5-dichloro-1H-pyrrol-2-yl)-[2,4-dihydroxy-3-(4-methyl-pentyl)-phenyl]-methanone], for which the “concentration giving >90% inhibition on MRSA biofilm formation” value in assay [1] (CV assay) was 70 µM. The IC50 was 24.8 µM in [1]; 2.9 µM in assay [2] (Staphylococcus aureus, NEWMAN); 47 ± 4.2 µM against S. aureus sortase A [3] (setting [10]); less than 50 µM on S. aureus sortase A [3] (setting [11]); 10 µM in [9] (Staphylococcus aureus, pre-formed biofilms, read-out: Biofilm Inhibition IC50); greater than 200 µM in assay [5] (Staphylococcus aureus, S. aureus ATCC 33591 (MRSA), pre-formed biofilms, read-out: Biofilm Inhibition IC50). Also, the IC50 was 32 ± 6.3 µM against S. aureus sortase A [6]; 5.7 ± 0.8 µM in [7]; 60 to 90 µM in the assay on HepG2 cells (72 h); 65 ± 7.4 µM in the assay with HepG2 cells (Homo sapiens, HepG2, 72 h); 60 to 90 µM in the assay on A549 cells (72 h); 88.1 ± 13 µM in the assay with A549 cells (Homo sapiens, A549, 72 h). The “concentration giving >90% inhibition of biofilm formation” value in assay [2] stood at 4.4 µM. Also, the “S. aureus MIC” value with S. aureus ATCC 25923 lay in the range of 5 to 8 µM; in assay [8], 25 to 80 µM; in the assay on S. aureus Newman it was 5 to 8 µM. In addition, the results for the MIC (in the assay with S. aureus ATCC 25923; in assay [8] (Staphylococcus aureus); against S. aureus Newman) were 6.3 ± 0.1 µM (≈ 2.24 µg/mL), 25.2 ± 5.5 µM (≈ 8.98 µg/mL) and 5.8 ± 1.3 µM (≈ 2.07 µg/mL), respectively. The “effect on E. coli ATCC 25922 biofilm formation” value in [4] was “did not show any effect”. For the same compound, in assay [9], the “concentration giving >90% inhibition on preformed biofilms” value was determined as 17 µM. Also, the “concentration giving >90% inhibition on MRSA preformed biofilms” value in assay [5] (CV assay) is 280 µM. Further, the “concentration giving ≥90% prevention of S. aureus Newman adherence to fibrinogen” value in [7] is 17 µM.
